{"source": "ChEMBL document CHEMBL1201862", "about": "“PubChem BioAssay data set” (2004)", "experiment_in_all_cases": "growth of human tumour cells (NCI), 48 h", "key": {"786-0": {"test_system": "786-0"}, "A498": {"test_system": "A498"}, "A549": {"test_system": "A549"}, "ACHN": {"test_system": "ACHN"}, "BT-549": {"test_system": "BT-549"}, "CAKI-1": {"test_system": "CAKI-1"}, "CCRF-CEM": {"test_system": "CCRF-CEM"}, "COLO 205": {"test_system": "COLO 205"}, "DU-145": {"test_system": "DU-145"}, "EKVX": {"test_system": "EKVX"}, "HCC 2998": {"test_system": "HCC 2998"}, "HCT-116": {"test_system": "HCT-116"}, "HCT-15": {"test_system": "HCT-15"}, "HL-60": {"test_system": "HL-60"}, "HOP-62": {"test_system": "HOP-62"}, "HOP-92": {"test_system": "HOP-92"}, "HT-29": {"test_system": "HT-29"}, "Hs-578T": {"test_system": "Hs-578T"}, "IGROV-1": {"test_system": "IGROV-1"}, "K562": {"test_system": "K562"}, "KM12": {"test_system": "KM12"}, "LOX IMVI": {"test_system": "LOX IMVI"}, "M14": {"test_system": "M14"}, "MCF7": {"test_system": "MCF7"}, "MDA-MB-231": {"test_system": "MDA-MB-231"}, "MDA-MB-435": {"test_system": "MDA-MB-435"}, "MDA-N": {"test_system": "MDA-N"}, "MOLT-4": {"test_system": "MOLT-4"}, "Malme-3M": {"test_system": "Malme-3M"}, "NCI-H226": {"test_system": "NCI-H226"}, "NCI-H23": {"test_system": "NCI-H23"}, "NCI-H460": {"test_system": "NCI-H460"}, "NCI-H522": {"test_system": "NCI-H522"}, "NCI/ADR-RES": {"test_system": "NCI/ADR-RES"}, "OVCAR-3": {"test_system": "OVCAR-3"}, "OVCAR-4": {"test_system": "OVCAR-4"}, "OVCAR-5": {"test_system": "OVCAR-5"}, "OVCAR-8": {"test_system": "OVCAR-8"}, "PC-3": {"test_system": "PC-3"}, "RPMI-8226": {"test_system": "RPMI-8226"}, "RXF 393": {"test_system": "RXF 393"}, "SF-268": {"test_system": "SF-268"}, "SF-295": {"test_system": "SF-295"}, "SF-539": {"test_system": "SF-539"}, "SK-MEL-28": {"test_system": "SK-MEL-28"}, "SK-MEL-5": {"test_system": "SK-MEL-5"}, "SK-OV-3": {"test_system": "SK-OV-3"}, "SN12C": {"test_system": "SN12C"}, "SNB-19": {"test_system": "SNB-19"}, "SNB-75": {"test_system": "SNB-75"}, "SR": {"test_system": "SR"}, "SW-620": {"test_system": "SW-620"}, "T47D": {"test_system": "T47D"}, "TK-10": {"test_system": "TK-10"}, "U-251": {"test_system": "U-251"}, "UACC-257": {"test_system": "UACC-257"}, "UACC-62": {"test_system": "UACC-62"}, "UO-31": {"test_system": "UO-31"}}, "note": "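These data come from cells grown in 96-well plates and exposed to compound for 48 hours at five concentrations. GI50 marks 50% less growth.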 Active and inactive are the calls of the source. Rule as the data show it: active = GI50 up to about 1.1 µM and inactive = higher.", "data": [{"smiles": "Cc1nc(-n2[nH]c(C)c(CCO)c2=O)[nH]c(=O)c1CCO", "values": [{"measurement": "GI50", "setting": "786-0", "result": "> 100 µM (inactive)"}, {"measurement": "GI50", "setting": "A498", "result": "93.1 µM (inactive)"}, {"measurement": "GI50", "setting": "A549", "result": "> 100 µM (inactive)"}, {"measurement": "GI50", "setting": "ACHN", "result": "> 100 µM (inactive)"}, {"measurement": "GI50", "setting": "BT-549", "result": "> 100 µM (inactive)"}, {"measurement": "GI50", "setting": "CAKI-1", "result": "> 100 µM (inactive)"}, {"measurement": "GI50", "setting": "CCRF-CEM", "result": "> 100 µM (inactive)"}, {"measurement": "GI50", "setting": "COLO 205", "result": "> 100 µM (inactive)"}, {"measurement": "GI50", "setting": "DU-145", "result": "> 100 µM (inactive)"}, {"measurement": "GI50", "setting": "EKVX", "result": "> 100 µM (inactive)"}, {"measurement": "GI50", "setting": "HCC 2998", "result": "> 100 µM (inactive)"}, {"measurement": "GI50", "setting": "HCT-116", "result": "> 100 µM (inactive)"}, {"measurement": "GI50", "setting": "HCT-15", "result": "> 100", "unit": "µM"}, {"measurement": "GI50", "setting": "HL-60", "result": "> 100 µM (inactive)"}, {"measurement": "GI50", "setting": "HOP-62", "result": "> 100 µM (inactive)"}, {"measurement": "GI50", "setting": "HOP-92", "result": "> 100 µM (inactive)"}, {"measurement": "GI50", "setting": "HT-29", "result": "> 100 µM (inactive)"}, {"measurement": "GI50", "setting": "Hs-578T", "result": "> 100 µM (inactive)"}, {"measurement": "GI50", "setting": "IGROV-1", "result": "> 100 µM (inactive)"}, {"measurement": "GI50", "setting": "K562", "result": "> 100 µM (inactive)"}, {"measurement": "GI50", "setting": "KM12", "result": "> 100 µM (inactive)"}, {"measurement": "GI50", "setting": "LOX IMVI", "result": "> 100 µM (inactive)"}, {"measurement": "GI50", "setting": "M14", "result": "> 100 µM (inactive)"}, {"measurement": "GI50", "setting": "MCF7", "result": "> 100 µM (inactive)"}, {"measurement": "GI50", "setting": "MDA-MB-231", "result": "> 100 µM (inactive)"}, {"measurement": "GI50", "setting": "MDA-MB-435", "result": "> 100 µM (inactive)"}, {"measurement": "GI50", "setting": "MDA-N", "result": "> 100 µM (inactive)"}, {"measurement": "GI50", "setting": "MOLT-4", "result": "> 100 µM (inactive)"}, {"measurement": "GI50", "setting": "Malme-3M", "result": "< 0.01 µM (active)"}, {"measurement": "GI50", "setting": "NCI-H226", "result": "> 100 µM (inactive)"}, {"measurement": "GI50", "setting": "NCI-H23", "result": "> 100 µM (inactive)"}, {"measurement": "GI50", "setting": "NCI-H460", "result": "> 100 µM (inactive)"}, {"measurement": "GI50", "setting": "NCI-H522", "result": "> 100 µM (inactive)"}, {"measurement": "GI50", "setting": "NCI/ADR-RES", "result": "> 100 µM (inactive)"}, {"measurement": "GI50", "setting": "OVCAR-3", "result": "> 100 µM (inactive)"}, {"measurement": "GI50", "setting": "OVCAR-4", "result": "> 100 µM (inactive)"}, {"measurement": "GI50", "setting": "OVCAR-5", "result": "> 10 µM (inactive)"}, {"measurement": "GI50", "setting": "OVCAR-8", "result": "> 100 µM (inactive)"}, {"measurement": "GI50", "setting": "PC-3", "result": "> 100 µM (inactive)"}, {"measurement": "GI50", "setting": "RPMI-8226", "result": "> 100 µM (inactive)"}, {"measurement": "GI50", "setting": "RXF 393", "result": "> 100 µM (inactive)"}, {"measurement": "GI50", "setting": "SF-268", "result": "> 100 µM (inactive)"}, {"measurement": "GI50", "setting": "SF-295", "result": "> 100 µM (inactive)"}, {"measurement": "GI50", "setting": "SF-539", "result": "> 100 µM (inactive)"}, {"measurement": "GI50", "setting": "SK-MEL-28", "result": "> 100 µM (inactive)"}, {"measurement": "GI50", "setting": "SK-MEL-5", "result": "> 100 µM (inactive)"}, {"measurement": "GI50", "setting": "SK-OV-3", "result": "> 100 µM (inactive)"}, {"measurement": "GI50", "setting": "SN12C", "result": "> 100 µM (inactive)"}, {"measurement": "GI50", "setting": "SNB-19", "result": "> 100 µM (inactive)"}, {"measurement": "GI50", "setting": "SNB-75", "result": "> 100 µM (inactive)"}, {"measurement": "GI50", "setting": "SR", "result": "> 100 µM (inactive)"}, {"measurement": "GI50", "setting": "SW-620", "result": "> 100 µM (inactive)"}, {"measurement": "GI50", "setting": "T47D", "result": "> 100 µM (inactive)"}, {"measurement": "GI50", "setting": "TK-10", "result": "> 100 µM (inactive)"}, {"measurement": "GI50", "setting": "U-251", "result": "> 100 µM (inactive)"}, {"measurement": "GI50", "setting": "UACC-257", "result": "> 100 µM (inactive)"}, {"measurement": "GI50", "setting": "UACC-62", "result": "> 100 µM (inactive)"}, {"measurement": "GI50", "setting": "UO-31", "result": "> 100 µM (inactive)"}]}]}
